ChEMBL document CHEMBL4627303, “Design, synthesis and evaluation of flurbiprofen-clioquinol hybrids as multitarget-directed ligands against Alzheimer's disease” (Bioorg Med Chem, 2020)

Legend:
[1] = biological target: Amyloid-beta precursor protein (Homo sapiens) (UniProt P05067); assay: Inhibition of Cu2+-induced HFIP-pretreated amyloid beta (1 to 42) (unknown origin) aggregation at 25 uM measured after 24 hrs by thioflavin-T fluorescence assay relative to control
[2] = biological target: Amyloid-beta precursor protein (Homo sapiens) (UniProt P05067); assay: Inhibition of HFIP-pretreated amyloid beta (1 to 42) (unknown origin) self-aggregation at 25 uM after 24 hrs by thioflavin-T fluorescence assay relative to control
[3] = biological target: T1, Amine oxidase [flavin-containing] A (Homo sapiens, UniProt P21397); assay: Inhibition of recombinant human MAOA expressed in baculovirus infected in BTI cells at 10 uM using kynuramine as substrate after 30 mins by fluorescence based assay relative to control; conditions: 0.5 h
T1 sequence (P21397 whole entry): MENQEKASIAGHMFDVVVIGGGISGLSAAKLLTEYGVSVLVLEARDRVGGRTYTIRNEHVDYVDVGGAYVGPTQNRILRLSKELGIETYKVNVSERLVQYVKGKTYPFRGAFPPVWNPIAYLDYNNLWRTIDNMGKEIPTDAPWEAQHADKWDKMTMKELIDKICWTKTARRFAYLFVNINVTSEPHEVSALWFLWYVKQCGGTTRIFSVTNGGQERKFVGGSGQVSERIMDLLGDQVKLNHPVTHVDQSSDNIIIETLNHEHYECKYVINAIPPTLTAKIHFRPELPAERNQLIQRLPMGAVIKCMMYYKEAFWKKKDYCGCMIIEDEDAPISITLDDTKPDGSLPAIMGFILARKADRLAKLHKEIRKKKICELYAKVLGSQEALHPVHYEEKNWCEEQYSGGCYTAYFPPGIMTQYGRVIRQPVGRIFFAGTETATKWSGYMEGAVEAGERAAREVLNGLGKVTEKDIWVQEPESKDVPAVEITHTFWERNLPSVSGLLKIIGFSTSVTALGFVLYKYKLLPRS

[4] = biological target: T2, Amine oxidase [flavin-containing] B (Homo sapiens, UniProt P27338); assay: Inhibition of recombinant human MAOB expressed in baculovirus infected in BTI cells at 10 uM using kynuramine as substrate after 30 mins by fluorescence based assay relative to control; conditions: 0.5 h
T2 sequence (P27338 whole entry): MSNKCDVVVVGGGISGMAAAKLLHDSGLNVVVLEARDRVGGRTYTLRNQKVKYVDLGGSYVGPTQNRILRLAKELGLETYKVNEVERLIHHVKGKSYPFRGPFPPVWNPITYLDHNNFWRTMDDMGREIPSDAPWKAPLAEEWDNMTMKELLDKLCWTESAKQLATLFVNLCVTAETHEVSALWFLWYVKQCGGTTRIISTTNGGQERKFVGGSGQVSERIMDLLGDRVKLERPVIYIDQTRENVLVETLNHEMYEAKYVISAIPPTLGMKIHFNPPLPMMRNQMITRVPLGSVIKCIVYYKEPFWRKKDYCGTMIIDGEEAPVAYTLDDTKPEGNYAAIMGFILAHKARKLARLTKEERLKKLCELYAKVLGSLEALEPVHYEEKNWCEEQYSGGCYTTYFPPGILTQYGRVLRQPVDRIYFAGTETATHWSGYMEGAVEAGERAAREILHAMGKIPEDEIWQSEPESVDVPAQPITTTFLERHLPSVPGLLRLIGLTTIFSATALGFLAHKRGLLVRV

[5] = Antioxidant activity assessed as AAPH-induced radical scavenging activity by measuring trolox equivalents for oxygen radical absorbance capacity measured every minute for 90 mins by ORAC-FL assay; type: functional
[6] = biological target: Amyloid-beta precursor protein (Homo sapiens) (UniProt P05067); assay: Disaggregation of self-induced amyloid beta (1 to 42) (unknown origin) preformed fibrils at 25 uM measured after 24 hrs by thioflavin-T fluorescence assay relative to control
[7] = tested on: BV-2; assay: Cytotoxicity against mouse BV2 cells assessed as reduction in cell viability at 0.5 to 10 uM measured after 30 mins by MTT assay; type: cell-based; conditions: bv-2, 0.5 h
[8] = tested on: BV-2; assay: Anti-neuroinflammatory activity in mouse BV2 cells assessed as inhibition of LPS-induced TNFalpha production at 10 uM preincubated for 30 mins followed by LPS stimulation measured after 24 hrs by ELISA relative to control; type: functional
[9] = tested on: BV-2; assay: Anti-neuroinflammatory activity in mouse BV2 cells assessed as inhibition of LPS-induced NO production at 2.5 uM preincubated for 30 mins followed by LPS stimulation measured after 24 hrs by Griess reagent based assay relative to control; type: functional
[10] = tested on: BV-2; assay: Effect on nitric oxide production in mouse BV2 cells at 0.5 to 10 uM measured after 30 mins by Griess reagent based […]; type: ADME, cell-based; conditions: bv-2, 0.5 h
[11] = tested on: BV-2; assay: Anti-neuroinflammatory activity in mouse BV2 cells assessed as inhibition of LPS-induced NO production at 10 uM preincubated for 30 mins followed by LPS stimulation measured after 24 hrs by Griess reagent based assay relative to control; type: functional
[12] = tested on: BV-2; assay: Cytotoxicity against LPS-induced mouse BV2 cells assessed as reduction in cell viability at 0.5 to 10 uM preincubated for 30 mins followed by LPS stimulation and measured after 24 hrs by MTT assay; type: cell-based; conditions: bv-2, 24 h
[13] = tested on: BV-2; assay: Anti-neuroinflammatory activity in mouse BV2 cells assessed as inhibition of LPS-induced TNFalpha production at 2.5 uM preincubated for 30 mins followed by LPS stimulation measured after 24 hrs by ELISA relative to control; type: functional
[14] = biological target: T2, Amine oxidase [flavin-containing] B; assay: Inhibition of recombinant human MAOB expressed in baculovirus infected in BTI cells using kynuramine as substrate after 30 mins by fluorescence based assay; type: cell-based

Sequence of Amyloid-beta precursor protein (Homo sapiens) (P05067 whole entry): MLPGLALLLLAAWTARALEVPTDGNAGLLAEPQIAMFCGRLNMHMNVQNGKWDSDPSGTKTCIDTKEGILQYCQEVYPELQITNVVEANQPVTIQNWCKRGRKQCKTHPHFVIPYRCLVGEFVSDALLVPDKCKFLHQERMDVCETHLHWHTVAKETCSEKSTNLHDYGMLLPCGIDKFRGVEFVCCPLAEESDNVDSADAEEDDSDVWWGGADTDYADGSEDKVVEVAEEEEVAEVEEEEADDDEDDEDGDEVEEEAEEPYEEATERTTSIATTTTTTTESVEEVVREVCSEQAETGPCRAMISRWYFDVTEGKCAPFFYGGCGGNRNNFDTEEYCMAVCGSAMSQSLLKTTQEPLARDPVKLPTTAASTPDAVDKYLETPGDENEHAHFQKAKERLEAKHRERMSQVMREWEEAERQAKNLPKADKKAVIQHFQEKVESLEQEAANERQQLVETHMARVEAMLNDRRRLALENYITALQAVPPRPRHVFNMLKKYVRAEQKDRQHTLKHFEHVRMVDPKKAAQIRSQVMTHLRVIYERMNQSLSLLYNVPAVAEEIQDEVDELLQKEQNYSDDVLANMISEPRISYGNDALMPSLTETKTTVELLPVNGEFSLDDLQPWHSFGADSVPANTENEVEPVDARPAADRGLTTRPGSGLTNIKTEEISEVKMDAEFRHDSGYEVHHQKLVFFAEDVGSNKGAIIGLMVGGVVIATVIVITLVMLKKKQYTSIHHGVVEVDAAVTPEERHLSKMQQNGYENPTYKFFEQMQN

Row | SMILES | inhibition [1] | inhibition [2] | inhibition at 10 µM [3] | inhibition at 10 µM [4] | Activity [5] | Activity [6] | Activity [7] | inhibition at 10 µM [8] | inhibition at 2.5 µM [9] | Activity [10] | inhibition at 10 µM [11] | Activity [12] | inhibition at 2.5 µM [13] | IC50 [14]
1 | COc1cc(/C=C/C(=O)CC(=O)/C=C/c2ccc(O)c(OC)c2)ccc1O | 32.5% | 32.5% | – | – | – | – | – | – | – | – | – | – | – | –
2 | COC(=O)C(C)c1ccc(-c2ccc(NCc3ccccc3O)cc2)c(F)c1 (stereo not given) | 42.9% | 24.7% | 15.9% | < 5% | 1.51 µMequiv/µM | 44.1% | – | – | – | – | – | – | – | –
3 | COC(=O)C(C)c1ccc(-c2ccc(NCc3cc(OC)ccc3O)cc2)c(F)c1 (stereo not given) | 43.6% | 73.6% | 28.4% | 33.4% | 2.05 µMequiv/µM | 53.3% | – | – | – | – | – | – | – | –
4 | CC(C(=O)O)c1ccc(-c2ccccc2)c(F)c1 (stereo not given) [FLURBIPROFEN] | 7.29% | – | – | – | 0.17 µMequiv/µM | 9.28% | Non-Toxic | 31.2% | 12.5% | Non-Toxic | 26.2% | Non-Toxic | 10.2% | –
5 | COC(=O)C(C)c1ccc(-c2ccc(NCc3nc(C)c(C)nc3C)cc2)c(F)c1 (stereo not given) | 22.5% | 27.5% | 20.4% | 42.5% | 1.69 µMequiv/µM | 18.3% | – | – | – | – | – | – | – | 15.1 µM
6 | Oc1c(I)cc(Cl)c2cccnc12 | 40.1% | 62.4% | – | – | 0.54 µMequiv/µM | 51.1% | – | – | – | – | – | – | – | –
7 | COC(=O)C(C)c1ccc(-c2ccc(NCc3cc(CN(C)C)ccc3O)cc2)c(F)c1 (stereo not given) | 43.7% | 43% | 22.4% | 32.8% | 1.92 µMequiv/µM | 51.2% | – | – | – | – | – | – | – | –
8 | COC(=O)C(C)c1ccc(-c2ccc(NCc3ccccn3)cc2)c(F)c1 (stereo not given) | 37.8% | 48.3% | 36.8% | 45.8% | 1.15 µMequiv/µM | 35.5% | – | – | – | – | – | – | – | 16.6 µM
9 | COC(=O)C(C)c1ccc(-c2ccc(NCc3cccc(OC)c3O)cc2)c(F)c1 (stereo not given) | 39.9% | 46.2% | 10.5% | 11.7% | 1.68 µMequiv/µM | 41.7% | – | – | – | – | – | – | – | –
10 | COC(=O)C(C)c1ccc(-c2ccc(NCc3cccc(CN(C)C)c3O)cc2)c(F)c1 (stereo not given) | 41.9% | 68.6% | 19.9% | < 5% | 2.18 µMequiv/µM | 45.1% | – | – | – | – | – | – | – | –
11 | COC(=O)C(C)c1ccc(-c2ccc(NCc3cc(NC(C)=O)ccc3O)cc2)c(F)c1 (stereo not given) | 24% | 39.2% | 18.7% | 46.2% | 1.65 µMequiv/µM | 27.1% | – | – | – | – | – | – | – | 16.3 µM
12 | COC(=O)C(C)c1ccc(-c2ccc(NCc3cc(Cl)ccc3O)cc2)c(F)c1 (stereo not given) | 41.9% | 48.3% | 30.6% | < 5% | 1.32 µMequiv/µM | 41.9% | – | – | – | – | – | – | – | –
13 | COC(=O)C(C)c1ccc(-c2ccc(NCc3ccc(OC)cc3O)cc2)c(F)c1 (stereo not given) | 30.6% | 32.8% | 11.2% | 22.9% | 1.96 µMequiv/µM | 25.6% | – | – | – | – | – | – | – | –
14 | COC(=O)C(C)c1ccc(-c2ccc(NCc3cc(CN4CCCCC4)ccc3O)cc2)c(F)c1 (stereo not given) | 29.4% | 29.4% | 18.2% | 25.8% | 2.14 µMequiv/µM | 30.2% | – | – | – | – | – | – | – | –
15 | COC(=O)C(C)c1ccc(-c2ccc(NCc3cc(C)ccc3O)cc2)c(F)c1 (stereo not given) | 49.7% | 58.5% | 21.9% | 11.4% | 1.56 µMequiv/µM | 42.6% | – | – | – | – | – | – | – | –
16 | COC(=O)C(C)c1ccc(-c2ccc(NCc3cc(Br)cc(Br)c3O)cc2)c(F)c1 (stereo not given) | 38.3% | 57.9% | 17.9% | 16.4% | 1.42 µMequiv/µM | 35.9% | – | – | – | – | – | – | – | –
17 | COC(=O)C(C)c1ccc(-c2ccc(NCc3cccc(CN4CCCCC4)c3O)cc2)c(F)c1 (stereo not given) | 42.4% | 48.8% | < 5% | < 5% | 2.02 µMequiv/µM | 43.3% | – | – | – | – | – | – | – | –
18 | COC(=O)C(C)c1ccc(-c2ccc(NCc3cc(CN(C)C)cc(OC)c3O)cc2)c(F)c1 (stereo not given) | 38.3% | 58.2% | 17.8% | 36% | 2.07 µMequiv/µM | 49.3% | – | – | – | – | – | – | – | –
19 | COC(=O)C(C)c1ccc(-c2ccc(NCc3cc(Br)ccc3O)cc2)c(F)c1 (stereo not given) | 32% | 37% | 29.3% | 28.4% | 1.37 µMequiv/µM | 36.6% | – | – | – | – | – | – | – | –
